Tests used:
A II receptor [1] = biological target: T1, A II receptor (Oryctolagus cuniculus, UniProt P34976); assay: inhibition of the A II-induced contraction in the rabbit aorta; format: cell-based; settings: in vitro, read-out: pA2 (converted)
T1 construct: A II-induced contraction in the rabbit aorta; from tissue; host or cells: rabbit aorta
T1 sequence (P34976 1-359): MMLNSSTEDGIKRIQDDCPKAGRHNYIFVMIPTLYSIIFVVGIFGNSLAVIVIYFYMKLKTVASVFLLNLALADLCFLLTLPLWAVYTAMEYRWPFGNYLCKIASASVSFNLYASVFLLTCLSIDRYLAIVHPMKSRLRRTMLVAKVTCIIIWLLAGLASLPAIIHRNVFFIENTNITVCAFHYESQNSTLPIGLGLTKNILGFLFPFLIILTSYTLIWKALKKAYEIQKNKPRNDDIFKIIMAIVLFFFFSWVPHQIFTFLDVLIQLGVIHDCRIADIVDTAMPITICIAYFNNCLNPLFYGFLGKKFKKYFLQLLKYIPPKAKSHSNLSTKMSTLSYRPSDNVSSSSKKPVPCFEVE
Source text: (§1) The compounds described in the present invention act as antagonists at the A II receptor level.
(§2) For the characterization and the evaluation of the effectiveness of the compounds of the invention, in vitro tests (such as the inhibition of the A II-induced contraction in the rabbit aorta and the displacement of ^125 I-Sar^1 -Ile^8 -AT II or [^3 H] AT II in the rat adrenal cortex) and an in vivo test (the inhibition of the A II-induced pressory response in the ganglio-blocked normotensive rat) were selected.

A II receptor [2] = assay: receptor binding test: displacement of 125I-Sar1-Ile8-AT II or [3H] AT II in the rat adrenal cortex
Source text: as §1, §2

SMILES	Kb (A II receptor [1]) [nM]	Ki (A II receptor [2]) [nM]
CCCCc1nc(Cl)c(COCc2occc2C(=O)O)n1Cc1ccc(-c2ccccc2-c2nnn[nH]2)cc1 [2-butyl-5-[(3-carboxyfuran-2-yl)methoxymethyl]-4-chloro-1-[[2'-(1H-tetrazol-5-yl)-1,1'-biphenyl-4-yl]methyl]-1H-imidazole]	1.26	3.2
CCCCc1nc(Cl)c(COCc2ccccc2C(=O)O)n1Cc1ccc(-c2ccccc2-c2nnn[nH]2)cc1 [ex. 18, 2-butyl-5-[(2-carboxyphenyl)methoxymethyl]-4-chloro-1-[[2'-(1H-tetrazol-5-yl)-1,1'-biphenyl-4-yl]methyl]-1H-imidazole]	0.2	4.4

Source: patent US5538987A, “Imidazole ethers having a II antagonist activity” (Istituto Luso Farmaco D'Italia S.p.A., priority 1992, dated 1996)
